Source: patent publication US11612600B2, “Pharmaceutical composition comprising macitentan for the treatment of chronic thromboembolic pulmonary hypertension” (ACTELION PHARMACEUTICALS LTD, priority 2019, dated 2023)

Experiments:
[1] = Drug-drug interaction in general
[2] = cited from earlier work
[3] = tested on: CYP3A4; experiment: CYP3A4 induction in human hepatocytes; type: in vitro ADME
[4] = Predicted plasma concentrations in PAH patients at 75 mg per day; type: in vivo, human; settings: macitentan 75 mg per day; for predicted peak plasma concentration: PAH patients, based on PK Sub-study, assuming dose linearity; for expected free plasma concentration: taking into account protein binding
Description: Predicted peak plasma concentrations of macitentan and ACT-132577 in PAH patients at 75 mg per day dose are expected to be around 5 μM and 14 μM, respectively, based on the PK Sub-study and assuming dose linearity. […] It is not likely that these unbound concentrations of macitentan and ACT-132577 result in any inhibition of BCRP in the liver or kidney or induction of CYP3A4 enzyme in the liver.

[5] = tested on: ET receptors; settings: cited from earlier work
[6] = target: T1, human PXR (Homo sapiens, UniProt O75469); experiment: Activation of human PXR; type: cell-based
T1 sequence (O75469 1-434): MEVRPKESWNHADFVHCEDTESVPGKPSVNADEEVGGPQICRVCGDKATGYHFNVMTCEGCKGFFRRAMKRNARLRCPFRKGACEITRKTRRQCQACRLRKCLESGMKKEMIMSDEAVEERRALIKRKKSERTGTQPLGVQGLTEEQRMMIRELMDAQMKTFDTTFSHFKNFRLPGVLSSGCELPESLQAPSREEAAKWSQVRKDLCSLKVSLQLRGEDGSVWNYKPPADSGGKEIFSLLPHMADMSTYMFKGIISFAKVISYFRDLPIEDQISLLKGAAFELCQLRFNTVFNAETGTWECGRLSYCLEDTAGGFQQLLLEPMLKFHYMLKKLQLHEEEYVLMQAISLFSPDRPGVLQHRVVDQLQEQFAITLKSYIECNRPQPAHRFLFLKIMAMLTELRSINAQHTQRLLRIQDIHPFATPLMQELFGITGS

[7] = continuous IV infusion, patients with PVR greater than 1200 dynes·s·cm^−5 before PEA surgery; cited from earlier work
[8] = target: T2, BCRP transporters (Homo sapiens, UniProt Q9UNQ0); experiment: Effect of macitentan on rosuvastatin pharmacokinetics; type: in vivo; settings: macitentan 10 mg per day o.d.
T2 construct: BCRP is an efflux pump located in the gut, liver canalicular membrane, and kidney; from tissue; host or cells: in vivo: gut, liver canalicular membrane, kidney
T2 sequence (Q9UNQ0 1-655): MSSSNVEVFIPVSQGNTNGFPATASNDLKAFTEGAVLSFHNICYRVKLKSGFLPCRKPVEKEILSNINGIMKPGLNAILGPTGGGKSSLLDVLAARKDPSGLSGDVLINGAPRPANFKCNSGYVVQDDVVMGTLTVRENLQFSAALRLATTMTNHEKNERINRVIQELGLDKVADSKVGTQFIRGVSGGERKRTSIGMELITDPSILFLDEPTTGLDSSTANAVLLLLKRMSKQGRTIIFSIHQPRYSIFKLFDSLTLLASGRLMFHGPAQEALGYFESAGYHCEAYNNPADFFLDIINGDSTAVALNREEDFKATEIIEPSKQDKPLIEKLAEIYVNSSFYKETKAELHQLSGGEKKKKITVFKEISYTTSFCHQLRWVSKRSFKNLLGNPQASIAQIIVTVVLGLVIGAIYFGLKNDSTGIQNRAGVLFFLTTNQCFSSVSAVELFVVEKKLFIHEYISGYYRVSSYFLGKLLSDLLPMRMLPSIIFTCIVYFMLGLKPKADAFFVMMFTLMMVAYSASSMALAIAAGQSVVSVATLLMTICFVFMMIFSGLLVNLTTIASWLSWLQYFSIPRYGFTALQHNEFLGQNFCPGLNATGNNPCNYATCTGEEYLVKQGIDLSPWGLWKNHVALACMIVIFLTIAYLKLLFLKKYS
Source text: BCRP is an efflux pump located in the gut, liver canalicular membrane, and kidney, and is exposed to intracellular drug concentrations in the liver and the kidney.

[9] = Effect of macitentan on decrease in hemoglobin concentration, pooled Phase I studies, Emax fit; type: in vivo, human; settings: healthy volunteers
Source text: Hemoglobin measurements were pooled from 3 Phase I clinical studies in healthy volunteers: • Study AC-055-102: Investigation of the PK, PD, safety and tolerability of macitentan in male subjects (the study protocol is described in the following publication: Sidharta et al., Safety, tolerability, pharmacokinetics, and pharmacodynamics of macitentan, an endothelin receptor antagonist, in an ascending multiple-dose study in healthy subjects. J. Clin. Pharmacol. (2013), 53(11), 1131-1138) • Study AC-055-116: Investigation of the PK, PD, safety and tolerability of macitentan in male Japanese subjects (the study protocol is described in the following publication: Yokoyama et al., Tolerability, Safety, Pharmacokinetics, and Pharmacodynamics of Macitentan, a New Endothelin Receptor Antagonist, in Healthy Japanese Male Subjects. Rinsho yakuri/Japanese Journal of Clinical Pharmacology and Therapeutics (2016), 47, 143-150) • Study AC-055-117: Investigation of the PK, PD, safety and tolerability of macitentan in male Korean subjects (the study protocol is described in the following publication: Ahn et al., Pharmacokinetic-pharmacodynamic relationships of macitentan, a new endothelin receptor antagonist, after multiple dosing in healthy Korean subjects, Am. […]
Hemoglobin concentrations measured in the morning of Day 11 of macitentan treatment and at baseline on Day −1 were used in the analysis. […]

[10] = rats, cited from earlier work
[11] = tested on: plasma ET-1; settings: healthy human subjects; 1, 3, 10, 30 mg; cited from earlier work

CYP3A4 mRNA and enzyme activity [3] | predicted peak plasma concentration [4] | expected free plasma concentration [4] [µM] | EC50 [6] [µM] | effect on the pharmacokinetics of 1 mg rosuvastatin [8] | dose at which the effect on hemoglobin decrease plateaus [9] [mg] | maximum effect on hemoglobin decrease (Emax) ([9]; Day 11 vs baseline Day −1) | Structure (SMILES) | drug-drug interaction [1] | time to peak plasma concentration ([2]; after the first dose of macitentan) | half-life ([2]; in humans) | plasma concentrations relative to macitentan ([2]; in vivo) | affinity for the ET receptors relative to parent compound [5] | effect on preoperative cardiac output and PVR [7] | dose of maximal or near-maximal effect ([10]; EMA Assessment Report) [mg/kg] | maximal effective dose [10] [mg/kg] | absorption into the plasma ([2]; in humans) | time to steady state ([2]; in humans) | plasma ET-1 concentrations at steady-state [11]
concentration-dependent increases | ~14 µM | 0.07 | 7.2 to 8.7 |  |  |  | NS(=O)(=O)Nc1ncnc(OCCOc2ncc(Br)cn2)c1-c1ccc(Br)cc1 [ACT-132577] | No Drug-Drug Interaction has been observed | about 30 hours | approximately 48 hours | higher plasma concentrations than macitentan | lower affinity |  |  |  |  |  | 
 |  |  |  |  |  |  | CCCCC[C@H](O)/C=C/[C@@H]1[C@H]2C/C(=C/CCCC(=O)O)O[C@H]2C[C@H]1O [epoprostenol] |  |  |  |  |  | may significantly increase preoperative cardiac output and reduces PVR |  |  |  |  | 
concentration-dependent increases | around 5 μM | 0.02 | 1.1 to 1.2 | has not shown any effect | 10 | around 1.23 g/dL | CCCNS(=O)(=O)Nc1ncnc(OCCOc2ncc(Br)cn2)c1-c1ccc(Br)cc1 [macitentan, propylsulfamic acid [5-(4-bromo-phenyl)-6-[2-(5-bromo-pyrimidin-2-yloxy)-ethoxy]-pyrimidin-4-yl]-amide] | No Drug-Drug Interaction has been observed |  | about 16 hours |  |  |  | 10 | 30 | absorbed slowly | by the third day of administration | no further increase beyond the 10 mg oral dose
